# According to article PMC10287695, “Non-covalent inhibitors of thioredoxin glutathione reductase with schistosomicidal activity in vivo” (Nature Communications, 2023):
# Where two headings read alike, the source gives them in different places. Marks after values point to notes of the source that are not given here.
# Tests used:
# [1] = target: T1, S. mansoni TGR (Schistosoma mansoni, UniProt Q962Y6); experiment: S. mansoni TGR enzyme inhibition (DTNB reduction); format: biochemical; settings: for IC50: 15 min preincubation (enzyme + 100 µM NADPH + compound)
# T1 construct: made in house
# T1 sequence (Q962Y6 1-598): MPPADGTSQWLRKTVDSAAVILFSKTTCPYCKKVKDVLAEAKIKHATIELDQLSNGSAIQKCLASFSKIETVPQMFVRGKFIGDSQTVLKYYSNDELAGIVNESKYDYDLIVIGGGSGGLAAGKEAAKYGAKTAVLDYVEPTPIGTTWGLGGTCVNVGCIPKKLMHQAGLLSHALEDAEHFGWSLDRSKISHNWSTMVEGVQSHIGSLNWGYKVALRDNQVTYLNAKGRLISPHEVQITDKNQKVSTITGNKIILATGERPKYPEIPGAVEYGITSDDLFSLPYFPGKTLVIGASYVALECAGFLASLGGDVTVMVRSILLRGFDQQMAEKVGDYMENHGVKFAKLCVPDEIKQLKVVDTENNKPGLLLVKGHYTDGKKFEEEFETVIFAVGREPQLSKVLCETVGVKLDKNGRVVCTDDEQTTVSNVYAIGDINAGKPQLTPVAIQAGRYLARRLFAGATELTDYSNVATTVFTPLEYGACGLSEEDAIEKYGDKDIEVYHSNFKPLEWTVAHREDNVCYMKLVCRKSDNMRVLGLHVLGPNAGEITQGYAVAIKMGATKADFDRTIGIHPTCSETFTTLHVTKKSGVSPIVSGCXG
# [2] = target: T2, Human TrxR1 (Homo sapiens, UniProt Q16881); experiment: Human TrxR1 enzyme inhibition (DTNB reduction); format: biochemical
# T2 construct: made in house
# T2 sequence (Q16881 1-499 isoform Q16881-5): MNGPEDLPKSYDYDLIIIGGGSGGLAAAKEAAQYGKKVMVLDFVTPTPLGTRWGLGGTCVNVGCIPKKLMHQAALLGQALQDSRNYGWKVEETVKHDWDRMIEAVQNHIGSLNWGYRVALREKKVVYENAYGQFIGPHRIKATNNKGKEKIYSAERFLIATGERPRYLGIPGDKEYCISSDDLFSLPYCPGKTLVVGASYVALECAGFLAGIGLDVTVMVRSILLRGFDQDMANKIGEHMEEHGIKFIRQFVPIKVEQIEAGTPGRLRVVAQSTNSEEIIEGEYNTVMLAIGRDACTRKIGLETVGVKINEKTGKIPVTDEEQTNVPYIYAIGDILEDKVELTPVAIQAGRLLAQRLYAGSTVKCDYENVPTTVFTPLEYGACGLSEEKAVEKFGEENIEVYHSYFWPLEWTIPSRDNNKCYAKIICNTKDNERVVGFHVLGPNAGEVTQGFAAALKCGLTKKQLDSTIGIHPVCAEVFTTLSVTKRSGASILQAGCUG
# Experimental: Recombinant TGR, human TrxR1, B. malayi (Bm)TrxR and human GR proteins were expressed and purified as described[20],[69],[79]. The codon optimized sequence for P. falciparum (PfTrxR, https://www.ncbi.nlm.nih.gov/protein/CAA60574.1/) with an N-terminal 6-His tag was synthesized and inserted into pET15b (GenScript) and expressed in BL21 (DE3) cells and purified as described for human GR[20]. TGR and TrxR enzyme inhibition assays were performed in triplicate at 25 °C as described[20] in 0.1 M potassium phosphate (pH 7.4), 10 mM EDTA, 100 µM NADPH and 0.01% Tween-20. […] The reaction was started with addition of an equal volume of DTNB (6 mM) and NADPH (100 µM) and the increase in A412 during the first 3 min was recorded. […] The reaction was preincubated for 15 min. Activity was initiated with the addition of 1 mM GSSG and 100 μM NADPH and initial rates of NADPH oxidation were monitored at 340 nm. The reactions were done in triplicate. The IC50 was calculated in GraphPad Prism.
# [3] = test system: S. mansoni newly transformed schistosomula (NTS); experiment: Schistosomicidal activity ex vivo, NTS (Cell Titer Glo); format: cell-based; settings: for LD50 ex vivo S. mansoni NTS: 24 h exposure, Cell TiterGlo
# Experimental: Oncomelania hupensis subsp. hupensis, Chinese strain, infected with S. japonicum, Chinese strain, and Biomphalaria glabrata, strain NMRI, infected with S. mansoni, strain NMRI, were provided by the NIAID Schistosomiasis Resource Center for distribution through BEI Resources, NIAID, NIH. After infections were patent, snails were exposed to bright light for 1 hr to obtain cercariae. Cercariae were mechanically transformed to schistosomula. Briefly, cercariae were placed on ice for 30 min and then centrifuged at 350 × g for 10 mins. The supernatant was decanted and 2 ml of serum-free M199 medium was added to cercarial pellets and vortexed for 1 min until cercarial tails were detached. NTS were purified by layering on 4 °C Percoll gradient suspension containing Eagle’s minimum essential medium, penicillin-streptomycin (10,000 U per ml penicillin/10,000 U per ml streptomycin), and 1 M HEPES in 0.85% NaCl with cercariae suspension and centrifuged at 500 × g for 15 min. Cercarial pellets were resuspended and washed thrice in serum-free M199 medium and collected at 100 × g for 5 min. NTS (240) were transferred to U-bottom 96 well assay plates containing 200 µl of M199 medium supplemented with 5.5 mM D-glucose, penicillin-streptomycin and 5% heat inactivated fetal bovine serum and incubated at 37 °C in a 5% CO2 incubator overnight.
# DMSO formulated compounds were diluted with phenol red free M199 medium or RPMI medium for NTS or juvenile and adult worms, respectively, at <1% DMSO final concentrations. NTS, juvenile and adult worms from overnight cultures were tested against compounds in triplicate. Controls were treated with DMSO alone or 5 µM AF as a positive control in appropriate medium. Worm viability was assessed at 24 or 72 h by measuring ATP content of worms using Cell Titer Glo Assay (Promega) as described. Schistosome viabilities in the presence of the compounds were assessed using this formula: % Viability = Averages of Test / Averages of DMSO Control x 100.
# [4] = test system: Vero cells; experiment: Cytotoxicity in mammalian cells (Cell Titer Glo); format: cell-based; settings: for EC50: Chlorocebus sabaeus, Vero, estimate from raw data, read-out: EC50 viability of Vero cells
# Experimental: Following overnight incubation, formulated DMSO-compound stock solutions were diluted with DMEM at <1% DMSO final concentrations. […] Vero cells treated similarly with different concentrations of PZQ, MZM and AF (Cayman Chemicals) were used as positive controls.
# [5] = 15 min preincubation (enzyme + 100 µM NADPH + compound), read-out: Human TrxR1 IC50
structure (smiles),measurement,setting,value
"O=C(C1CCCCC1)N1CC(=O)N2CCc3ccccc3C2C1 (stereo not drawn) [PZQ, praziquantel]",S. mansoni TGR inhibition (%) at 66.7 µM,[1]; 6 h preincubation (enzyme + 100 µM NADPH + compound),n.i.^e
same,Human TrxR1 IC50 (µM) or inhibition (%) at 66.7 µM: inhibition,"[2]; 66.7 µM, 6 h preincubation",n.i.^e
same,LD50 ex vivo S. mansoni NTS,[3],27.1 ± 2.27 µM
same,viability at 20 µM,[3]; Schistosoma mansoni,58.2%
same,viability at 0.5 µM,"[3]; Schistosoma mansoni, S. mansoni NTS, Conc. 0.5 µM, read-out: % viability",94.3%
same,viability at 1 µM,"[3]; Schistosoma mansoni, S. mansoni NTS, Conc. 1 µM, read-out: % viability",91.8%
same,viability at 5 µM,"[3]; Schistosoma mansoni, S. mansoni NTS, Conc. 5 µM, read-out: % viability",85.6%
same,viability at 10 µM,"[3]; Schistosoma mansoni, S. mansoni NTS, Conc. 10 µM, read-out: % viability",71.9%
same,viability at 30 µM,"[3]; Schistosoma mansoni, S. mansoni NTS, Conc. 30 µM, read-out: % viability",35.8%
same,LD50 ex vivo VERO,[4]; 24-hour exposure,>50^a µM
Cc1oc(-c2ccccc2)nc1CN[C@@H]1C[C@@H]2C[C@H]([C@H]1C)C2(C)C [Compound 3],IC50,[1],> 66.7 µM
same,inhibition at 66.7 µM,"[1]; 6 h preincubation (enzyme + 100 µM NADPH + compound), read-out: S. mansoni TGR inhibition (%) at 66.7 µM",45%
same,IC50,[2]; [5],> 66.7 µM
same,IC50,"[2]; 6 h preincubation, read-out: Human TrxR1 IC50 (µM) or inhibition (%) at 66.7 µM: IC50",42.7 ± 3.95 µM
same,LD50 ex vivo S. mansoni NTS,[3],4.3 ± 0.20 µM
same,LD50 ex vivo VERO,"[4]; African green monkey, 24 h",36.1 ± 3.0 µM
same,EC50,[4],> 50 µM
C[C@@H]1[C@H]2C[C@@H](C[C@H]1NCc1nc3ccccc3n1C1CCCCCC1)C2(C)C [Compound 8],IC50,[1],10.3 ± 2.01 µM
same,inhibition at 15 µM,"[1]; TGR, 15 minutes pre-incubation, compound 15 µM, read-out: % inhibition",57.4%
same,inhibition at 30 µM,"[1]; TGR, 15 minutes pre-incubation, compound 30 µM, read-out: % inhibition",62.9%
same,inhibition at 66.7 µM,"[1]; TGR, 15 minutes pre-incubation, compound 66.7 µM, read-out: % inhibition",78.8%
same,IC50,[2]; [5],4.9 ± 1.72 µM
same,inhibition at 2.5 µM,"[2]; hsTrxR, 15 minutes pre-incubation, compound 2.5 µM",37.2%
same,inhibition at 5 µM,"[2]; hsTrxR, 15 minutes pre-incubation, compound 5 µM",49.7%
same,inhibition at 10 µM,"[2]; hsTrxR, 15 minutes pre-incubation, compound 10 µM",61.6%
same,LD50 ex vivo S. mansoni NTS,[3],9.4 ± 0.74 µM
same,viability at 0.1 µM,[3]; Schistosoma mansoni,99.8%
same,viability at 1 µM,[3]; Schistosoma mansoni,91.9%
same,viability at 5 µM,[3]; Schistosoma mansoni,84.8%
same,viability at 10 µM,[3]; Schistosoma mansoni,33.1%
same,viability at 15 µM,[3]; Schistosoma mansoni,28.2%
same,viability at 30 µM,[3]; Schistosoma mansoni,11.9%
same,viability at 50 µM,[3]; Schistosoma mansoni,1.87%
same,viability at 100 µM,[3]; Schistosoma mansoni,0.303%
same,LD50 ex vivo VERO,"[4]; African green monkey, 24 h",32.7 ± 2.99 µM
same,EC50,[4],> 50 µM
